Counter-ions that a name gives are not always drawn. Like-named read-outs stand apart in the source and are kept apart here.

Usually Ki stands for a dissociation constant, usually derived from enzyme kinetics or from competition with a known ligand. Usually IC50 stands for the concentration needed to halve the response being measured. Lower therefore signals higher potency.

Assay [1] concerns the target T1, A2 receptors from rat striatal membranes (Rattus norvegicus, UniProt P30543).
T1 construct: Rat cerebral cortical and striatal membranes were prepared; from tissue; host or cells: rat striatal membranes
Nature of the assay: Radioligand binding at A2 (A2a) receptors, displacement of [3H]CGS 21680 (or [3H]NECA with 50 nM CPA) from rat striatal membranes. A general note: In a radioligand displacement assay an active substance lowers the binding of a labelled ligand.

Assay [2] concerns the target T2, A1 receptors from rat brain membranes (Rattus norvegicus, UniProt P25099).
T2 construct: Rat cerebral cortical and striatal membranes were prepared; from tissue; host or cells: rat brain (cerebral cortical) membranes
T2 sequence (P25099 1-326): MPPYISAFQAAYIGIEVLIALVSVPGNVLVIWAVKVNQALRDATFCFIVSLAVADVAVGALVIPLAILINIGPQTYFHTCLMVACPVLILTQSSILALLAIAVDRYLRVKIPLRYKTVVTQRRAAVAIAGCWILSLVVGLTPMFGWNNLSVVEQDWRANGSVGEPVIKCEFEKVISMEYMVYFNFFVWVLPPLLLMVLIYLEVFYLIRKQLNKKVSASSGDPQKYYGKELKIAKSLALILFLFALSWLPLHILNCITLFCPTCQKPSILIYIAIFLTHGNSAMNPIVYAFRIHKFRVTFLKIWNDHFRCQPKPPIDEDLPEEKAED
In words: biochemical. The format is binding.

Where [3] appears, read: read-out: A2 percent displacement.
Setting [4] is: at 100 μM, read-out: A1 percent displacement.
Where [5] appears, read: rat striatal membranes, displacement of [3H]CGS 21680 (or [3H]NECA + 50 nM CPA), read-out: A2 affinity Ki.
Where [6] appears, read: rat brain membranes, displacement of [3H]PIA (or [3H]CHA), read-out: A1 affinity Ki.
The mark [7] stands for this setting: at 100 μM, read-out: A2 percent displacement.
Where [8] appears, read: read-out: A1 percent displacement.
The mark [9] stands for this setting: Table 2, [3H]CGS 21680, rat striatal membranes, read-out: Ki (A2).
[10] abbreviates: Table 2, [3H]PIA, rat brain membranes, read-out: Ki (A1).

T1 sequence (P30543 whole entry): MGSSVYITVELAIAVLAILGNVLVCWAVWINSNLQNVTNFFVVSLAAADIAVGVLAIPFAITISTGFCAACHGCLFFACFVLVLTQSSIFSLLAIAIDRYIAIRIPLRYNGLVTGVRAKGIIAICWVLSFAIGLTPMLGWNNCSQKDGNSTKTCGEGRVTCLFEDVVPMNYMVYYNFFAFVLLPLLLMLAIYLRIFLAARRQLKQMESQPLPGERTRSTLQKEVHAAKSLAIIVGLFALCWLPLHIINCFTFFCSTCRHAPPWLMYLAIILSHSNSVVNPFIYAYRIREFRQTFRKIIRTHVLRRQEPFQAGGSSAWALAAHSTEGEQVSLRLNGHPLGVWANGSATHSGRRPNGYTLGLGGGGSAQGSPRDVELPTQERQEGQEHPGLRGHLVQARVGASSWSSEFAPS

As for `O=c1ccn([C@@H]2O[C@H](CO)[C@@H](O)[C@H]2O)c(=O)[nH]1` [Compound 82, uridine, reference compound], the inhibition at 100 µM stood at 2.8 ± 5.2% in assay [1] (setting [3]) and 14.3 ± 6.9% in assay [2] (setting [4]).
Consider `OC[C@H]1O[C@@H](n2cnc3c(O)ncnc32)[C@H](O)[C@@H]1O` [Compound 85, inosine, reference compound], for which the figures for the inhibitory constant (Ki) in assay [1] (setting [5]) and in assay [2] (setting [6]) were 50000 nM and 16700 nM, respectively.
The like results for `CCCn1c(=O)[nH]c2nc(C3CCCC3)[nH]c2c1=O` [Compound 129, 8-cyclopentyl-1-propylX, reference compound] were, in that order, 48700 nM and 226 ± 37 nM.
Consider `Nc1nc2c(ncn2[C@@H]2O[C@H](CO)[C@@H](O)[C@H]2O)c(=S)[nH]1` [Compound 88, 6-thioguanosine, reference compound], for which the values for the inhibition at 100 µM in assay [1] (setting [7]) and in assay [2] (setting [4]) were 27.7 ± 5.8% and 44.2 ± 2.3%, respectively.
Taken in the same sequence, the figures for `CO[C@@H]1[C@H](O)[C@@H](CO)O[C@H]1n1cnc2c(N)ncnc21` [Compound 71, 2'-O-methyladenosine, reference compound] were 49 ± 5% and 29.4 ± 7.5%.
For `Nc1c2ncn([C@@H]3O[C@H](CO)[C@@H](O)[C@H]3O)c2nc[n+]1[O-]` [Compound 34, adenosine-N^1 -oxide, reference compound], the Ki was 328 ± 60 nM in assay [1] (setting [5]) and 246 ± 31 nM in assay [2].
`Nc1ccn([C@@H]2O[C@H](CO)[C@@H](O)[C@H]2O)c(=O)n1` [Compound 84, cytidine, reference compound]: the values for the inhibition at 100 µM in assay [1] (setting [3]) and in assay [2] (setting [8]) were 16 ± 1.5% and 18 ± 1.2%, respectively.
In the case of `CCNC(=O)[C@H]1O[C@@H](n2cnc3c(NCc4cccc(OC)c4)ncnc32)[C@H](O)[C@@H]1O` [Compound 66, N^6-(3-methoxybenzyl)-NECA], the inhibitory constant (Ki) was 38 ± 6 nM in assay [1] (setting [5]) and 69 ± 8 nM in assay [2] (setting [6]).
Taken in the same sequence, the figures for `CCCCn1c(=O)c2c(ncn2[C@@H]2O[C@H](C(=O)NCC)[C@@H](O)[C@H]2O)n(CCCC)c1=O` [Compound 126, N-ethyl 1,3-di-n-butylxanthine-7-β-D-ribofuronamide] were 17000 nM and 7500 nM.
The like results for `CNC(=O)[C@H]1O[C@@H](n2cnc3c(NCc4cccc(C)c4)ncnc32)[C@H](O)[C@@H]1O` [Compound 46, N^6-(3-methylbenzyl)-NMCA] were, in that order, 415 ± 33 nM and 322 ± 23 nM.
As for `Nc1ncnc2c1ncn2[C@H]1C[C@H](O)[C@@H](CO)O1` [Compound 70, 2'-deoxyadenosine, reference compound], the values for the inhibition at 100 µM in assay [1] (setting [7]) and in assay [2] (setting [4]) were 38.9 ± 2.9% and 30.9 ± 8%, respectively.
For `CCNC(=O)[C@H]1O[C@@H](n2cnc3c(NCc4ccc(OC)cc4)ncnc32)[C@H](O)[C@@H]1O` [Compound 67, N^6-(4-methoxybenzyl)adenosine-5'-N-ethyluronamide], the inhibition constant (Ki) amounted to 609 ± 34 nM in assay [1] (setting [5]) and 209 ± 30 nM in assay [2] (setting [6]).
As for `CCNC(=O)[C@H]1O[C@@H](n2cnc3c(=O)[nH]cnc32)[C@H](O)[C@@H]1O` [Compound 91, inosine-5'-N-ethyluronamide], the half-inhibitory concentration (IC50) in assay [1] and in assay [2] was above 100000 nM each time. Moreover, the inhibition at 100 µM in assay [1] (setting [3]) came to 30.6 ± 2.3%; in assay [2] (setting [8]) it was 43.7 ± 10.3%.
`CCCCn1c(=O)c2c(ncn2[C@@H]2O[C@H](CO)[C@@H](O)[C@H]2O)n(CCCC)c1=O` [Compound 119, 1,3-di-n-butylxanthine-7-β-D-ribofuranoside]: the Ki in assay [1] (setting [5]) was determined as 19500 nM; in assay [2] (setting [6]) it was 4190 nM.
With `Nc1nc(NCc2cccc(I)c2)c2ncn([C@@H]3O[C@H](CO)[C@@H](O)[C@H]3O)c2n1` [Example 43, 2-amino-N^6-(3-iodobenzyl)-9-[β-D-ribofuranosyl]-adenine], the “factor less potent than N6-(3-iodobenzyl)-adenosine at A2a receptors” value in assay [1] worked out at 6.7 factor. Also, the results for the Ki in assay [1] (setting [9]) and in assay [2] (setting [10]) were 117 ± 15 nM and 63.8 ± 15.1 nM, respectively. Also, in assay [2], the “factor less potent than N6-(3-iodobenzyl)-adenosine at A1 receptors” value worked out at 3.2 factor.
Consider `CNC(=O)[C@H]1O[C@@H](n2cnc3c(NCc4cccc(I)c4)nc(NC)nc32)[C@H](O)[C@@H]1O` [Example 45, N^6-(3-iodobenzyl)-2-methylamino-9-[5-(methylamido)-β-D-ribofuranosyl]-adenine], for which the Ki came to 4120 ± 210 nM in assay [1] (setting [9]) and 4890 ± 2580 nM in assay [2] (setting [10]).
Regarding `CC(C)CSC[C@H]1O[C@@H](n2cnc3c(N)ncnc32)[C@H](O)[C@@H]1O` [Compound 76, 5'-deoxy-5'-isobutylthio adenosine, reference compound], the inhibitory constant (Ki) in assay [1] (setting [5]) worked out at 6890 nM; in assay [2] (setting [6]), 1140 nM.
The like results for `CCCn1c(=S)[nH]c(=O)c2[nH]cnc21` [Compound 114, 2-thio-3-propylX, reference compound] were, in that order, 32500 nM and 26100 nM.
In the case of `CNC(=O)[C@H]1O[C@@H](n2cnc3c(NCc4ccc(S(=O)(=O)O)cc4)ncnc32)[C@H](O)[C@@H]1O` [Compound 53, N^6-(4-sulfobenzyl)adenosine-5'-N-methyluronamide triethylammonium salt], the inhibition at 100 µM in assay [1] (setting [3]) and in assay [2] (setting [4]) was 0% each time.
Turning to `Nc1ncnc2c1ncn2[C@@H]1O[C@H](COP(=O)(O)O)[C@@H](O)[C@H]1O` [Compound 78, adenosine-5'-monophosphate, reference compound], the inhibition at 100 µM in assay [1] (setting [3]) was found to be 57.5 ± 4%. In addition, in assay [2], the affinity corresponds to a Ki of 47500 ± 6500 nM.
Regarding `NCCNC(=O)[C@H]1O[C@@H](n2cnc3c(N)ncnc32)[C@H](O)[C@@H]1O` [Compound 25, 5'-N-aminoethylaminocarboxamidoadenosine], the figures for the inhibition at 100 µM in assay [1] (setting [3]) and in assay [2] (setting [8]) were 12.5% and 0%, respectively.
With `Cn1cnc2c(=O)[nH]c(=O)n(C)c21` [Compound 107, 3,9-dimethylX, reference compound], the inhibition at 100 µM in assay [1] (setting [3]) amounted to 4.2 ± 5.9%; in assay [2] (setting [4]), 19.7 ± 7.9%.
Regarding `CCNC(=O)[C@H]1O[C@@H](n2cnc3c(NCc4cccc(F)c4)ncnc32)[C@H](O)[C@@H]1O` [Compound 57, N^6-(3-fluorobenzyl)adenosine-5'-N-ethyluronamide], the values for the Ki in assay [1] (setting [5]) and in assay [2] (setting [6]) were 32 ± 4 nM and 51 ± 7 nM, respectively.
Regarding `COc1nc2c(c(=O)n(C)c(=O)n2C)n1[C@@H]1O[C@H](CO)[C@@H](O)[C@H]1O` [Example 59, 8-methoxytheophylline-7-β-D-ribofuranoside], the inhibition at 100 µM turned out to be 4% in assay [1] (Table 4, at 10^-4 M, read-out: percent displacement of radioligand at A2) and 21 ± 3% in assay [2] (Table 4, at 10^-4 M, read-out: percent displacement of radioligand at A1).
For `CNC(=O)[C@H]1O[C@@H](n2cnc3c(=O)[nH]cnc32)[C@H](O)[C@@H]1O` [Compound 90, inosine-5'-N-methyluronamide], the inhibition at 100 µM is 6.2 ± 4.2% in assay [1] (setting [3]) and 0% in assay [2] (setting [4]).
As for `O=c1[nH]c(=O)c2ncn([C@@H]3O[C@H](CO)[C@@H](O)[C@H]3O)c2[nH]1` [Compound 81, xanthosine, reference compound], the inhibition at 100 µM in assay [1] (setting [7]) is 8.5 ± 2.5%; in assay [2] (setting [4]) it was 9.1 ± 2.4%.
With `C[C@H]1O[C@@H](n2cnc3c(N)ncnc32)[C@H](O)[C@@H]1O` [Compound 73, 5'-deoxyadenosine, reference compound], the Ki in assay [1] (setting [5]) was found to be 596 ± 54 nM; in assay [2] (setting [6]) it was 269 ± 135 nM.
The like results for `CCNC(=O)[C@H]1O[C@@H](n2cnc3c(NCc4cccc(C)c4)ncnc32)[C@H](O)[C@@H]1O` [Compound 64, N^6-(3-methylbenzyl)-NECA] were, in that order, 17.7 ± 1.8 nM and 36.5 ± 1.2 nM.
Taken in the same sequence, the figures for `CNC(=O)[C@H]1O[C@@H](n2cnc3c(NCc4ccc(N)cc4)ncnc32)[C@H](O)[C@@H]1O` [Compound 50, N^6-(4-aminobenzyl)-NMCA] were 1590 nM and 431 ± 45 nM.
Taken in the same sequence, the figures for `CCNC(=O)[C@H]1O[C@@H](n2cnc3c(NCc4cccc([N+](=O)[O-])c4)ncnc32)[C@H](O)[C@@H]1O` [Compound 62, N^6-(3-nitrobenzyl)-NECA] were 35 ± 7 nM and 78 ± 10 nM.
Take `CNC(=O)[C@H]1O[C@@H](n2cnc3c(NCc4ccccc4)ncnc32)[C@H](O)[C@@H]1O` [Compound 40, N^6-benzyladenosine-5'-N-methyluronamide]: the Ki amounted to 597 ± 42 nM in assay [1] (setting [5]) and 898 ± 124 nM in assay [2] (setting [6]).
Taken in the same sequence, the figures for `CCNC(=O)[C@H]1O[C@@H](n2cnc3c(NCc4ccccc4[N+](=O)[O-])ncnc32)[C@H](O)[C@@H]1O` [Compound 61, N^6-(2-nitrobenzyl)adenosine-5'-N-ethyluronamide] were 24 ± 3 nM and 31 ± 4 nM.
Consider `Cc1cn([C@H]2C[C@H](O)[C@@H](CO)O2)c(=O)[nH]c1=O` [Compound 83, thymidine, reference compound], for which the inhibition at 100 µM was found to be 1.7 ± 3.4% in assay [1] (setting [3]) and 23.4 ± 2.5% in assay [2] (setting [4]).
In the case of `[O-][n+]1cnc2c(ncn2[C@@H]2O[C@H](CO)[C@@H](O)[C@H]2O)c1NCc1ccccc1` [Compound 36, N^6 -benzyladenosine-N^1 -oxide], the Ki stood at 8530 nM in assay [1] (setting [5]) and 864 ± 88 nM in assay [2] (setting [6]).

These data come from patent US5773423A (priority 1994, dated 1998).
